In EP1953147A1, “HETEROCYCLIC COMPOUND AND MEDICINAL APPLICATION THEREOF” (priority 2005, dated 2007):

Each compound was assayed on ΔG/SEAP/HCV E1E2 (assay: Effect of test substance on cell infection with HCV pseudotype virus (SEAP reporter assay in HepG2 cells)). Settings: Hepatitis C virus.
Type: cell-based

SMILES	IC50
COc1cc(OC)cc(-c2nn(-c3cc(N4CC[C@H](O)C4)ccc3C(F)(F)F)c(=O)c3c2CCN3C(=O)OC(C)C)c1 [Example 155, 4-(3,5-dimethoxy-phenyl)-6-[5-((S)-3-hydroxy-pyrrolidin-1-yl)-2-trifluoromethyl-phenyl]-7-oxo-2,3,6,7-tetrahydro-pyrrolo[2,3-d]pyridazine-1-carboxylic acid isopropyl ester]	< 0.1 µM
COc1cc(-c2nn(-c3cc(N4CC[C@H](O)C4)ccc3C(F)(F)F)c(=O)c3c2CCC3)ccn1 [Example 93, 2-[5-((S)-3-hydroxy-pyrrolidin-1-yl)-2-trifluoromethyl-phenyl]-4-(2-methoxy-pyridin-4-yl)-2,5,6,7-tetrahydro-cyclopenta[d]pyridazin-1-one]	0.1 to 10 µM
O=c1c2c(c(-c3ccccc3F)nn1-c1cc(N3CC[C@H](O)C3)ccc1C(F)(F)F)CCC2 [Example 105, 4-(2-fluoro-phenyl)-2-[5-((S)-3-hydroxy-pyrrolidin-1-yl)-2-trifluoromethyl-phenyl]-2,5,6,7-tetrahydro-cyclopenta[d]pyridazin-1-one]	0.1 to 10 µM
Cc1cc(C)cc(-c2nn(-c3cc(N4CC[C@H](O)C4)ccc3C(F)(F)F)c(=O)c3c2CC(C)N3)c1 (stereo partly drawn) [Example 1-33, 4-(3,5-dimethyl-phenyl)-6-[5-((S)-3-hydroxy-pyrrolidin-1-yl)-2-trifluoromethyl-phenyl]-2-methyl-1,2,3,6-tetrahydro-pyrrolo[2,3-d]pyridazin-7-one]	< 0.1 µM
CCNc1ccc(C(F)(F)F)c(-n2nc(-c3cc(OC)cc(OC)c3)c3c(c2=O)CCC3)c1 [Example 67, 4-(3,5-dimethoxy-phenyl)-2-(5-ethylamino-2-trifluoromethyl-phenyl)-2,5,6,7-tetrahydro-cyclopenta[d]pyridazin-1-one]	< 0.1 µM
COc1cc(OC)cc(-c2nn(-c3cc(NCCCC(=O)O)ccc3C(F)(F)F)c(=O)c3c2CCC3)c1 [Example 151, 4-{3-[4-(3,5-dimethoxy-phenyl)-1-oxo-1,5,6,7-tetrahydro-cyclopenta[d]pyridazin-2-yl]-4-trifluoromethyl-phenylamino}-butyric acid]	< 0.1 µM
COc1cc(OC)cc(-c2nn(-c3cc(N4CC[C@H](O)C4)ccc3C(F)(F)F)c(=O)c3c2CCCN3CCO)c1 [Example 1-39, 5-(3,5-dimethoxy-phenyl)-1-(2-hydroxy-ethyl)-7-[5-((S)-3-hydroxy-pyrrolidin-1-yl)-2-trifluoromethylphenyl]-1,3,4,7-tetrahydro-2H-pyrido[2,3-d]pyridazin-8-one]	< 0.1 µM
COc1cc(OC)cc(-c2nn(-c3cc(NCCC(N)=O)ccc3C(F)(F)F)c(=O)c3c2CCC3)c1 [Example 142, 3-{3-[4-(3,5-dimethoxy-phenyl)-1-oxo-1,5,6,7-tetrahydro-cyclopenta[d]pyridazin-2-yl]-4-trifluoromethyl-phenylamino}-propionamide]	< 0.1 µM
COc1cc(OC)cc(-c2nn(-c3cc(N4CC[C@H](O)C4)ccc3C(F)(F)F)c(=O)c3c2CCN3CC(=O)O)c1 [Example 27, {4-(3,5-dimethoxy-phenyl)-6-[5-((S)-3-hydroxy-pyrrolidin-1-yl)-2-trifluoromethyl-phenyl]-7-oxo-2,3,6,7-tetrahydro-pyrrolo[2,3-d]pyridazin-1-yl}-acetic acid]	< 0.1 µM
COc1cc(OC)cc(-c2nn(-c3c(Cl)cccc3Cl)c(=O)c3c2CCC3)c1 [Example 87, 2-(2,6-dichloro-phenyl)-4-(3,5-dimethoxy-phenyl)-2,5,6,7-tetrahydro-cyclopenta[d]pyridazin-1-one]	< 0.1 µM
